The structures appear in SMILES notation. Where only a bound is given, the exact number is not on record here.

The subject of data set [1] is HBV. The data set is described as follows: HBV assay in Huh7 cells transfected with pCI_HBVpg1820, intracapsid viral DNA by real-time PCR. Type of data set: cell-based, hepatitis B virus (HBV). The note with it: Hepatitis B virus, Huh-7, 96 h, 10 μM, Huh7 cells, 4 days; read-out: HBV % Inhibition Huh7. The method, then:
In Huh7 cells: antiviral activity against HBV in cell culture was measured as previously described. Briefly, Huh7 cells were transfected with plasmid pCI_HBVpg1820 containing 1.1 unit of HBV genome under the control of a human cytomegalovirus (CMV) promoter. The drugs were stored at 1000× in DMSO at −20 °C. For each experiment, the drugs were diluted in DMEM cell culture medium (Thermo Fisher Scientific, Artenay, France) to a final concentration of 10 μM. All drugs were tested in triplicate in two independent experiments. After 4 days of culture, intracapsid viral DNA was quantified by duplex real-time PCR, using primers described elsewhere, on a LightCycler 480 II apparatus (Roche Diagnostics France, Meylan, France) using TaqMan Universal PCR Mastermix II without UNG (Thermo Fisher Scientific, Artenay, France). Cells were quantified using primers by real-time PCR, using primers HPRT1_F (5′-[…]) and HPRT1_R (5′-[…]), on a LightCycler 480 II apparatus (Roche) using a LightCycler® 480 SYBR Green I Master (Roche Diagnostics France, Meylan, France). Cycling reactions were performed with the following parameters: 5 min at 95 °C, followed by 45 cycles of 10 s at 95 °C, 15 s at 60 °C, 10 s at 72 °C. The inhibition of HBV replication (%) and cell culture viability (%) were quantified using the following formulas. Inhibition of HBV replication (%)=1− HBV DNA copy numberDrug/HBV DNA copy numberCell culture medium Cell viability (%)= HPRT1 DNA copy numberDrug/HPRT1 DNA copy numberCell culture medium

A short description of data set [2]: in vitro. Conditions: human.
The subject of data set [3] is hepatitis B virus (HBV). The data set is described as follows: Anti-HBV activity of compound 6 (unpublished data). The note with it: read-out: EC50 (HBV). Type of data set: cell-based.
A short description of data set [4]: in vitro.

As to `C=C1[C@H](CO)[C@@H](O)C[C@@H]1n1cnc2c(=O)[nH]c(N)nc21` [Entecavir, reference compound], the inhibition at 10 µM in data set [1] worked out at 92%. In data set [2], this compound gave a viability at 4 days, 10 µM of 96%.

`C/C(=C\CP(=O)(OCOC(=O)OC(C)C)OCOC(=O)OC(C)C)Cn1cnc2c(O)nc(N)nc21` [Compound 6, bis(POC)-(E)-2-methyl-but-2-enylguanine]: in data set [3], the EC50 amounted to 8.5 µM. The CC50 in data set [4] was above 100 µM.

These data come from PMC7967160, “Synthesis and Antiviral Evaluation of (1,4-Disubstituted-1,2,3-Triazol)-(E)-2-Methyl-but-2-Enyl Nucleoside Phosphonate Prodrugs” (Molecules, 2021).
